Reference: paper PMC9551276, “Design, synthesis and biological evaluation of novel orthosteric-allosteric ligands of the cannabinoid receptor type 2 (CB2R)” (Frontiers in Chemistry, 2022)
“And” between values parts separate entries of the source, which are not always exact repeats. Equal values may be shown once.

Experiments:
hCB2R [1] = target: T1, hCB2R (Homo sapiens, UniProt P34972); assay: DiscoveRx PathHunter βarrestin2 recruitment; format: cell-based
Experimental: βarrestin2 recruitment was quantified using the DiscoveRx PathHunter® assay. […] Detection solution was added to cells (DiscoveRx), and cells were incubated for 60 min at room temperature. Chemiluminescence was measured on a Cytation5 plate reader (top read, gain 200, integration time 10,000 ms).

hCB2R [2] = target: T1, hCB2R; assay: DiscoveRx HitHunter inhibition of FSK-stimulated cAMP accumulation; format: cell-based
Experimental: Inhibition of FSK-stimulated cAMP accumulation was measured using the DiscoveRx HitHunter assay.

hCB1R = target: T2, hCB1R (Homo sapiens, UniProt P21554); assay: [3H]CP55,940 radioligand displacement, CHO-K1 hCB1R membranes; format: binding; conditions: % [3H]CP55,940 bound, 1 nM radioligand, 2 h
T2 construct: expressed in transfected cells; host or cells: CHO-K1 (ATCC CCL-61) stably expressing hCB1R; membranes
T2 sequence (P21554 whole entry): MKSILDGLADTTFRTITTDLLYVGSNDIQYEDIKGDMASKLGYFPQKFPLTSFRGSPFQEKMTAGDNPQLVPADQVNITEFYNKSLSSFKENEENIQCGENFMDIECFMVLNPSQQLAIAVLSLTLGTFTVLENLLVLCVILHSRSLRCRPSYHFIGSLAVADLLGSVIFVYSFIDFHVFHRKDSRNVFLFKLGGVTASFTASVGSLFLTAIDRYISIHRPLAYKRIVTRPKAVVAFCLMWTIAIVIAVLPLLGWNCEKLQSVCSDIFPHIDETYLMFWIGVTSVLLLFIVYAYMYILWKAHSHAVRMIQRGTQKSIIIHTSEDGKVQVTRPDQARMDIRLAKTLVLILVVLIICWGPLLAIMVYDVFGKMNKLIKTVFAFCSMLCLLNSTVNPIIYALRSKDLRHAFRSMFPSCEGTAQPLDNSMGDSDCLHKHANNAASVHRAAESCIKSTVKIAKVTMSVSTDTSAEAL
Experimental: (§1) CHO-K1 cells were thawed, diluted in Tris buffer (50 mM Tris [pH 7.4]) and homogenized in a 1 ml hand-held homogenizer. hCB1R and hCB2R CHO-K1 cell membranes were collected by cavitation in a pressure cell, and sedimented by ultracentrifugation. Pellets were resuspended in TME buffer (50 mM Tris, 5 mM MgCl2, 1 mM EDTA [pH 7.4]), and protein concentration was measured via the Bradford method according to the manufacturer’s directions (Bio-Rad Laboratories, Mississauga, ON). […] Radioligand binding began with the addition of CHO-K1 cell membranes (25 µg protein per sample). Assays were performed for 120 min at 37°C and stopped by the addition of ice-cold Tris binding buffer (pH 7.4), followed by vacuum filtration using a 24-well sampling manifold (Brandel Cell Harvester; Brandel Inc., Gaithersburg, MD, United States ). Brandel GF/B filter paper was soaked with wash buffer at 4 °C for at least 24 h. Each filter paper was washed 6 times with a 1.2 ml aliquot of Tris-binding buffer (pH 7.4), then air-dried and submerged in 5 ml of scintillation fluid (Ultima Gold XR, PerkinElmer). Liquid scintillation spectrometry was used to quantify radioactivity.

hCB2R [3] = target: T1, hCB2R; assay: [3H]CP55,940 radioligand displacement, CHO-K1 hCB2R membranes; format: binding; conditions: for hCB2R E min (% CP55,940) ± S.E.M: % [3H]CP55,940 bound, 1 nM radioligand, 2 h; for Effect on [3H]CP55,940 bound to hCB2R: [3H]CP55,940 displacement
Experimental: as §1, with “Assays were performed for 120 min at 37°C and stopped by the addition of ice-cold Tris binding buffer (pH 7.4), followed by vacuum filtration using a 24-well sampling manifold (Brandel Cell Harvester; Brandel Inc., Gaithersburg, MD, United States ).” left out

[4] = tested on: human microglial cells (HMC3); assay: IL-6 and IL-10 release (ELISA) in LPS/TNFα-stimulated HMC3 cells; format: cell-based
Experimental: The concentrations of pro-inflammatory (IL-6) and anti-inflammatory (IL-10) interleukins were determined by performing specific ELISA assays (MyBioSource, San Diego, CA, United States ) on collected culture media. Human microglial cells (HMC3) were exposed to pretreatment with test compounds for 1 h followed by stimulation with LPS (10 μg/ml)/TNFα (50 ng/ml) for 24 h. In competition experiments, the CB2R antagonist (SR144528, 1 μM) or the CB2R positive allosteric modulator (EC21a 1 or 10 μM) were administered 15 min before agonist administration.

[5] = CHO-K1 hCB2R, 10 µM FSK, 90 min
[6] = CHO-K1 hCB2R, 90 min, read-out: βarrestin2 recruitment EC50 (95% C.I.)
[7] = CHO-K1 hCB2R, 10 µM FSK, 90 min, read-out: Inhibition of cAMP EC50 (95% C.I.)

T1 sequence (P34972 whole entry): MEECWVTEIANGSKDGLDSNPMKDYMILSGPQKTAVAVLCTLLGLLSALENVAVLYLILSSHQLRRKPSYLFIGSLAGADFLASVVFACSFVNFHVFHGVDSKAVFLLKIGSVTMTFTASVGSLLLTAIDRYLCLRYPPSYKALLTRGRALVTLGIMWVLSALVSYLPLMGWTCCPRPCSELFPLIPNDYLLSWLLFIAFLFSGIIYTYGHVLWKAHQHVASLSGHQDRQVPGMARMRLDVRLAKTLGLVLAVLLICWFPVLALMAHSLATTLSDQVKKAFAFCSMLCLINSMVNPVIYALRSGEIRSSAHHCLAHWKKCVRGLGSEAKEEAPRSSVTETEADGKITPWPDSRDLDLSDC

Row | Structure (SMILES) | EC50 (hCB2R [1]) | βarrestin2 recruitment E max (% CP55,940) ± S.E.M (hCB2R [1]; CHO-K1 hCB2R, 90 min) | EC50 (hCB2R [2]) | Inhibition of cAMP E max (% CP55,940) ± S.E.M (hCB2R [2]; [5]) | melting point | hCB1R E min (% CP55,940) ± S.E.M (hCB1R) | EC50 (hCB2R [1]; [6]) | Response in inhibition of FSK-stimulated cAMP accumulation (hCB2R [2]; CHO-K1 hCB2R) | EC50 (hCB2R [2]; [7]) | IC50 (hCB2R [3]) | hCB2R E min (% CP55,940) ± S.E.M (hCB2R [3]) | Effect on [3H]CP55,940 bound to hCB2R (hCB2R [3]) | Response in βarrestin2 recruitment (hCB2R [1]; CHO-K1 hCB2R) | EC50 (hCB2R [2]; Inhibition of cAMP EC50 (95% C.I.), CHO-K1 hCB2R, 10 µM FSK, 90 min) | EC50 (hCB2R [2]; Inhibition of cAMP EC50 (95% C.I.), co-administration, EC21a concentration-response in the presence of 10 nM LV62, 10 µM FSK, 90 min) | Effect of co-administered EC21a on JR64a anti-inflammatory activity (IL-6 release) ([4]; EC21a at equimolar or higher doses, LPS/TNFα) | Effect of equimolar EC21a on LV62 anti-inflammatory activity ([4]; LV62 1 or 10 μM with EC21a 1:1, LPS/TNFα 24 h)
1 | Cc1c(Br)cn(CCCc2cn(CCCCCn3c(=O)c(C(=O)NC4CCC(C)CC4)cc4cccnc43)nn2)c(=O)c1NC(=O)C1CCCCCC1 (stereo not shown) [JR22a, 1-(5-(4-(3-(5-bromo-3-(cycloheptanecarboxamido)-4-methyl-2-oxopyridin-1(2H)-yl)propyl)-1H-1,2,3-triazol-1-yl)pentyl)-N-(4-methylcyclohexyl)-2-oxo-1,2-dihydro-1,8-naphthyridine-3-carboxamide] | > 10 µM | 33 ± 3.1 % CP55,940 | 0.062 µM | 38 ± 5.5 % CP55,940 | 114 °C (dec.) |  |  |  |  |  |  |  |  |  |  |  | 
2 | Cc1c(Br)cn(CCCc2cn(CCCCC(=O)NC3CCC(NC(=O)c4cc5cccnc5n(Cc5ccc(F)cc5)c4=O)CC3)nn2)c(=O)c1NC(=O)C1CCCCCC1 (stereo not shown) [JR14a, N-(4-(5-(4-(3-(5-bromo-3-(cycloheptanecarboxamido)-4-methyl-2-oxopyridin-1(2H)-yl)propyl)-1H-1,2,3-triazol-1-yl)pentanamido)cyclohexyl)-1-(4-fluorobenzyl)-2-oxo-1,2-dihydro-1,8-naphthyridine-3-carboxamide] |  | 39 ± 0.93 % CP55,940 |  | 41 ± 5.7 % CP55,940 | 108 °C (dec.) | 98 ± 2.5 % CP55,940 | 0.025 µM | modest partial agonist activity | 0.15 µM | 0.0018 µM | 59 ± 12.3 % CP55,940 |  |  |  |  |  | 
3 | Cc1c(Br)cn(Cc2cn(CCCCCn3c(=O)c(C(=O)NC4CCC(C)CC4)cc4cccnc43)nn2)c(=O)c1NC(=O)C1CCCCCC1 (stereo not shown) [JR26a, 1-(5-(4-((5-bromo-3-(cycloheptanecarboxamido)-4-methyl-2-oxopyridin-1(2H)-yl)methyl)-1H-1,2,3-triazol-1-yl)pentyl)-N-(4-methylcyclohexyl) -2-oxo-1,2-dihydro-1,8-naphthyridine-3-carboxamide] |  | 39 ± 6.1 % CP55,940 |  | 41 ± 5.1 % CP55,940 | 116 °C (dec.) |  | > 10 µM |  | 0.11 µM |  |  |  |  |  |  |  | 
4 | Cc1c(Br)cn(CCOCCn2c(=O)c(C(=O)NC3CCC(C)CC3)cc3cccnc32)c(=O)c1NC(=O)C1CCCCCC1 (stereo not shown) [JR58a, 1-(2-(2-(5-bromo-3-(cycloheptanecarboxamido)-4-methyl-2-oxopyridin-1(2H)-yl)ethoxy)ethyl)-N-(4-methylcyclohexyl)-2-oxo-1,2-dihydro-1,8-naphthyridine-3-carboxamide] | > 10 µM | 51 ± 2.8 % CP55,940 | 0.27 µM | 45 ± 2.9 % CP55,940 | 110 °C (dec.) |  |  |  |  |  |  |  |  |  |  |  | 
5 | CC1CCC(NC(=O)c2cc3cccnc3n(CCCCCO)c2=O)CC1 (stereo not shown) [LV62, reference compound] |  | 65 ± 1.4 % CP55,940 | 0.058 µM | 110 ± 8.8 % CP55,940 and 110 ± 5.3 % CP55,940 |  | 106 ± 3.6 % CP55,940 |  |  |  | 0.00065 µM | 16 ± 11.9 % CP55,940 | fully displaced |  |  |  |  | 
6 | Cc1c(Br)cn(Cc2ccc(F)cc2)c(=O)c1NC(=O)C1CCCCCC1 [EC21a, reference compound] | > 10 µM | 1.4 ± 0.96 % CP55,940 |  | 2.5 ± 0.53 % CP55,940 |  | 103 ± 2.5 % CP55,940 |  | no response was detected |  | 0.036 µM | 115 ± 7.9 % CP55,940 | increased | no response was detected | > 10 µM | 0.0043 µM | no effects on JR64a anti-inflammatory activity | enhanced LV62 anti-inflammatory activity
7 | Cc1c(Br)cn(CCCCCn2c(=O)c(C(=O)NC3CCC(C)CC3)cc3cccnc32)c(=O)c1NC(=O)C1CCCCCC1 (stereo not shown) [JR61a, 1-(5-(5-bromo-3-(cycloheptanecarboxamido)-4-methyl-2-oxopyridin-1(2H)-yl)pentyl)-N-(4-methylcyclohexyl)-2-oxo-1,2-dihydro-1,8-naphthyridine-3-carboxamide] | > 10 µM | 34 ± 2.2 % CP55,940 | 0.42 µM | 46 ± 1.7 % CP55,940 | 118 °C (dec.) |  |  |  |  |  |  |  |  |  |  |  | 
8 | Cc1c(Br)cn(CCCCOCCCCn2c(=O)c(C(=O)NC3CCC(C)CC3)cc3cccnc32)c(=O)c1NC(=O)C1CCCCCC1 (stereo not shown) [JR60a, 1-(4-(4-(5-bromo-3-(cycloheptanecarboxamido)-4-methyl-2-oxopyridin-1(2H)-yl)butoxy)butyl)-N-(4-methylcyclohexyl)-2-oxo-1,2-dihydro-1,8-naphthyridine-3-carboxamide] | > 10 µM | 36 ± 9.2 % CP55,940 | 0.77 µM | 46 ± 4.4 % CP55,940 | 118 °C (dec.) |  |  |  |  |  |  |  |  |  |  |  | 
9 | Cc1c(Br)cn(Cc2cn(CCCCC(=O)NC3CCC(NC(=O)c4cc5cccnc5n(Cc5ccc(F)cc5)c4=O)CC3)nn2)c(=O)c1NC(=O)C1CCCCCC1 (stereo not shown) [JR16a, N-(4-(5-(4-((5-bromo-3-(cycloheptanecarboxamido)-4-methyl-2-oxopyridin-1(2H)-yl)methyl)-1H-1,2,3-triazol-1-yl)pentanamido)cyclohexyl)-1-(4-fluorobenzyl)-2-oxo-1,2-dihydro-1,8-naphthyridine-3-carboxamide] |  | 27 ± 4.2 % CP55,940 |  | 36 ± 8.6 % CP55,940 | 113 °C (dec.) |  |  |  | 0.35 µM |  |  |  |  |  |  |  | 
